The subject of data set [1] is human tumor xenografts. The settings on record: nude mice, diverse histological types; cited from earlier work.
The nature of data set [2]: Aqueous solubility of CCI-779. The following applies: water (aqueous). The class given is physicochemical. How it is done:
(§1) One obstacle towards the formulation of CCI-779 is its poor aqueous solubility (less than 1 μg/ml), which makes its bioavailability low.

The nature of data set [3]: Aqueous stability of CCI-779. The class given is physicochemical. The settings on record: cleavage of a lactone bond, forming ring opened seco-CCI-779. The protocol: as §1
In data set [4] the test system is tumor cells. The settings on record: histologically diverse tumor cells; cited from earlier work.

Structures are written as SMILES.

As for `CO[C@H]1C[C@@H]2CC[C@@H](C)[C@@](O)(O2)C(=O)C(=O)N2CCCC[C@H]2C(=O)O[C@H]([C@H](C)C[C@@H]2CC[C@@H](OC(=O)C(C)(CO)CO)[C@H](OC)C2)CC(=O)[C@H](C)/C=C(\C)[C@@H](O)[C@@H](OC)C(=O)[C@H](C)C[C@H](C)/C=C/C=C/C=C/1C` [CCI-779, rapamycin 42-ester with 3-hydroxy-2-(hydroxymethyl)-2-methylpropionic acid], the “activity against human tumor xenografts” value in data set [1] is reported as “has activity against human tumor xenografts of diverse histological types”. Also, the solubility – broadly, the concentration that dissolves in the medium under given conditions – in data set [2] is less than 1 µg/mL. The aqueous stability entry in data set [3] is recorded as “exhibits aqueous instability”. Also, the “inhibition of tumor cell growth in vitro” value in data set [4] was “inhibit the growth of a number of histologically diverse tumor cells”.

The values are drawn from patent US20040077677A1, “Oral formulations” (Wyeth, priority 2002, published 2004).
